The values that follow are results of earlier work, collected in patent US20250345315A1, “Dispenseable formulation for active pharmaceutical ingredients” (CurifyLabs Oy, priority 2024, published 2025).

Structures are written as SMILES. Structures can show the parent of a compound that is named as a salt.

For the series the following is noted: permeability/solubility class per ICH M9 guideline.

As for `CC(=O)Oc1ccccc1C(=O)O` [Acetylsalicylic acid], the Class entry is on record as “I”.
As to `CC(C)NCC(O)COc1ccc(COCCOC(C)C)cc1` (centres unmarked) [Bisoprolol fumarate], the Class result is reported as “I”.
Consider `CC(=O)Nc1ccc(O)cc1` [Paracetamol], for which the Class entry is reported as “I”.
With `C[C@]12C=CC(=O)C=C1CC[C@@H]1[C@@H]2[C@@H](O)C[C@@]2(C)[C@H]1CC[C@]2(O)C(=O)CO` [Prednisolone], the Class entry is “I”.
Consider `CC(C)NCC(O)COc1cccc2ccccc12` (centres unmarked) [Propranolol HCl], for which the Class entry is reported as “I”.
